Laboratory results as given in article PMC8131363 (Scientific Reports, 2021).

Legend:
domestic short hair cats = test: two-bottle choice test, cat water panel; type: in vivo, Felis catus; details: for intake of compound solution compared to water: n = 24, 18 h, CaCl2 at 8 mM; for preference for umami amino acid mix with compound vs amino acid mix alone: n = 24, mix 15 mM L-His, 15 mM L-Trp, 15 mM L-Phe
Experimental: Healthy neutered adult domestic short hair cats (Felis catus) formed the panel for all the choice tests described here (n = 24). […] All the cats taking part in the panel were individually fed dry adult cat food twice per day to their individual Maintenance Energy Requirements (MER). On test days, the cats were housed during 18 h overnight in purpose-built, behaviourally-enriched lodges. During the 18 h exposure, the cats only had access to the water solutions in the two-bottle testing apparatus, however they had free access to drinking water for the rest of the day when they were housed in a social group within an environmentally enriched room. All accommodation complied with the Code of Practice for Animal (Scientific Procedures) Act 1986. All solutions were made with deionised water (Purite, UK). All taste-active substances were food-grade or of the highest available purity. In some cases, salts were purchased instead of the pure compound due to solubility, stability or availability reasons. The in vivo testing was a two-bottle choice test and the methodology was adapted from[23]. All animal studies were in alignment with the Mars Animal Research Policy (Mars.com). These studies follow the 3Rs approach to experimentation with animals in scientific research[59] and were approved by the Waltham Animal Welfare and Ethical Review Board, and all the methods were carried-out in accordance with local guidelines and regulations, including the ARRIVE guidelines. […] The drinkers contained the test solution or the control solution, and the position of the drinkers presented to the cats was changed every day to control for any side bias, and each solution was offered twice to each cat. The cats were also offered at the same time as the water solutions, 50% of their daily food allowance. After 30 min. the food was removed and the cats were left in their individual lodges overnight, with access to the drinkers for 18 h. The next day the drinkers were weighed, and the remaining quantities were recorded as refused amounts. Total intakes were calculated using the difference of the offered and refused amounts. A correction for evaporation and any solution spillage was also performed on each data point. Using a bespoke statistical analysis toolkit, based on R software (R Foundation, Vienna, Austria), a mixed model analysis was performed on the difference in intake (g) between water solutions containing the different taste compound, including cat (random) as a factor and weighting by grouped cat specific variability. This was used to test the mean intake difference versus 0, i.e. no difference, at a 5% level. The mean difference in intake was reported with a 95% confidence interval. All individual tests were then combined into a single model and the difference between the tastant pairs (i.e. both conditions containing the kokumi tastant in water vs. in the umami amino acid mix) were directly compared to measure the impact of the compound on the intake of either water or the umami mix. Any data errors (e.g. following manual error such as solution spillage, overflow) were removed from the final data set for analysis.

human sensory panel = human sensory panel triangle test; type: in vivo; details: humans, CaCl2 8 mM, MgCl2 8 mM; for % correct, triangle test in umami mix: GSH 0.65 mM in MSG/IMP/NaCl mix vs mix blank; for % correct, triangle test in water: GSH 0.65 mM in mineral water vs blank
Experimental: All solutions were prepared using a commercial mineral water, Highland Spring (Highland Spring group, Blackford, UK) previously tested on our taste sensory panel and found to have the lowest level of inherent taste, thus being the least disruptive to taste tests. All taste-active substances were food-grade or of the highest available purity.
For tests with CaCl2, MgCl2, and GSH, each compound was dissolved directly in water, at 8 mM, 8 mM and 0.65 mM, respectively. Each compound was also tested in a mixture of umami and salty compounds, previously described in kokumi sensory evaluation, composed of 0.02% MSG, 0.02% IMP and 0.07% NaCl.
The human sensory panel experimental protocols were approved by the Waltham Animal Welfare and Ethical Review Board and all methods were carried-out in accordance with all local regulations and guidelines. Informed consent was obtained from all subjects, and all participants were over the legal age of consent. All assessors used for the tests were validated following the process outlined in ISO 8586:2012(E). Briefly, all assessors were evaluated on their capacity to recognise tastants from blank solutions and successfully identify the basic taste modalities presented. The panellists were also assessed on their ability to correctly rank solutions of a tastant in ascending concentration order. The measures for successful validation of panellists were applied to all who completed the assessment.
For the kokumi tastant tests, six tests in all were completed, two with each CaSR agonist chosen CaCl2, MgCl2, or GSH. The number of participating panellists for each test varied between twenty-four and twenty-five. […] No replicate evaluations were done by the same assessor. For each compound, the assessors were presented with […] separate forced choice triangle tests. In the first test, the compound was dissolved in spring water and compared to a blank of pure spring water, in the second the compound was dissolved into the previously described umami mix[8] and compared to a blank of the umami mix. In each separate test, the panellists were presented with the samples in a randomised order to eliminate potential bias. Panellists were presented either two blanks and a sample or two samples and a blank and asked to identify the sample that was different in the triad. Panellists were asked to give a brief description of why the sample chosen was different. If they were unable to detect a difference, the assessors were instructed to choose a sample at random and specify in the description that they were unable to make a difference between the samples[61].
The data was analysed for statistical significance using a standard methodology described in[61]. For this, the number of correct answers were compared to the number of assessors in each test, at the α-risk level chosen for the test. […] As determined by a one tailed test, the minimum number of panellists required to successfully determine difference between samples was thirteen for the chosen α value.
Initially, a contingency table of the number of correct answers and the number of wrong answers was created for each test. Then, Pearson’s chi-square test was then applied to the resulting table, with the probability of a correct answer at random being 1/ 3, while the probability of a wrong answer was 2/ 3.

Row | Structure (SMILES) | intake of compound solution compared to water (domestic short hair cats) | preference for umami amino acid mix with compound vs amino acid mix alone (domestic short hair cats) | % correct, triangle test in umami mix (human sensory panel) | % correct, triangle test in water (human sensory panel)
1 | [Ca+2].[Cl-].[Cl-] [Ca^2+, CaCl2] | no significant difference | significant preference | 36% | 56%
2 | N[C@@H](CCC(=O)N[C@@H](CS)C(=O)NCC(=O)O)C(=O)O [Glutathione] | significantly lower acceptance | no statistically significant difference | 58.3% | 37.5%
3 | [Cl-].[Cl-].[Mg+2] [Mg^2+, MgCl2] | significantly lower acceptance | significantly rejected | 50% | 50%
